US20120184545A1, “HEART-SLOWING DRUG CONTAINING SHORT-ACTING BETA-BLOCKER AS TEH ACTIVE INGREDIENT” (ONO PHARMACEUTICAL CO., LTD., priority 2003, published 2012)
Where a name gives a salt, the structure may show the parent alone.

Columns and labels:
[1] = cited from earlier work
angina pectoris patients = assay: efficacy and safety of landiolol hydrochloride in coronary angiography using MSCT; format: in vivo, human
Source text: Evaluation of efficacy and safety of landiolol hydrochloride to the coronary angiography ability using MSCT:
In the imaging of MSCT, LightSpeed Ultra 16 (16-slices MSCT, manufactured by GE medical systems) was used.
As a Workstation, Advantage Workstation AW 4.2 (manufactured by GE Medical Systems) was used.
As an imaging analysis soft, CardIQ Analysis II manufactured by GE Medical Systems was used.
As contrast media, iomeprol 350 mgI/ml (brand name: Iomeron 350, manufactured by Eisai Co., Ltd., was used.
To four angina pectoris patients, was intravenously administered landiolol hydrochloride swiftly over a period of 1 minute (0.063 mg/kg/minute), followed by a sustained intravenous administration over a period of 10 minutes (0.02 mg/kg/minute).
The contrast media were administered 10 minutes after confirming that the heart rate was slowed down. The imaging timing was determined by a test injection method using contrast media. As a result of swift administration of iomeprol (10 ml) and saline (20 ml) sequentially, it took approximately average of 16 seconds for iomeprol to reach heart. Afterwards, iomeprol (70 ml) and saline (20 ml) were swiftly administered sequentially and in time with the timing when iomeprol reached heart, MSCT imaging was started.
Three-dimensional overall figures of coronary artery were grasped with (A), and then followed by evaluation of the lesion site with (B) and (C), optionally followed by addition of an orthogonal cross-section imaging of a coronary artery for further confirmation.
To the above four angina pectosis patients, landiolol hydrochloride was administered. […] The inhibition rate (%) was calculated by {(post-value/(pre-value)×100−100}.

| SMILES | half life in blood [1] | image quality of coronary angiography by MSCT (angina pectoris patients; after administration of landiolol hydrochloride, iomeprol contrast medium, 16-slices MSCT) | lowering of the blood pressure (safety) (angina pectoris patients; angina pectoris patients, after administration) | Heart rate after administration (angina pectoris patients; four angina pectoris patients (n = 4), i.v. 0.063 mg/kg/minute for 1 minute, then 0.02 mg/kg/minute for 10 minutes, before administration 61.0) [min⁻¹] | Systolic blood pressure after administration (angina pectoris patients; four angina pectoris patients (n = 4), i.v. 0.063 mg/kg/minute for 1 minute, then 0.02 mg/kg/minute for 10 minutes, before administration 173.3) [mmHg] |
| --- | --- | --- | --- | --- | --- |
| COC(=O)CCc1ccc(OCC(O)CNC(C)C)cc1 (centres unmarked) [esmolol hydrochloride, Methyl 3-[4-[2-hydroxy-3-(isopropylamino)propoxy]phenyl]propionic acid hydrochloride] | approximately 9 minutes |  |  |  |  |
| CC1(C)OC[C@@H](COC(=O)CCc2ccc(OC[C@@H](O)CNCCNC(=O)N3CCOCC3)cc2)O1 [landiolol hydrochloride, (−)-[(S)-2,2-dimethyl-1,3-dioxolan-4-yl]methyl-3-[4-[(S)-2-hydroxy-3-(2-morpholinocarbonylamino)ethylamino]propoxy]phenylpropionic acid hydrochloride] |  | extremely sharp | no excessive lowering of the blood pressure was found | 54.8 | 161.8 |
